Assay results as given in article PMC10447463, “Data-mining unveils structure–property–activity correlation of viral infectivity enhancing self-assembling peptides” (Nature Communications, 2023).

What was measured:
[1] = system: HIV-1 infection of TZM-bl cells; experiment: HIV-1 infectivity enhancement assay, β-galactosidase luminescence; assay type: cell-based
TZM-bl cells = assay type: cell-based; details: CellTiter-Glo, mean of n = 3 replicates; for viability 0.26 µM: peptide 0.26 µM; for viability 1.3 µM: peptide 1.3 µM; for viability 6.5 µM: peptide 6.5 µM
Description: The cell viability after addition of peptides to TZM–bl cells was studied via the CellTiter–Glo assay. To this end, 10,000 cells were seeded and on the next day serial diluted peptides were added. After 3 days the supernatant was removed and 100 µL CellTiter–Glo Reagent 1:1 diluted in PBS was added. After 10 min 50 µL was transferred to white microplate and luminescence was recorded by Orion microplate luminometer.
2. Cell Viability of Representatively Selected Peptides
Figure S 2 Cell Viability normalized to 100% metabolic activity as determined by CellTiterGlo Assay of 57 representatively selected peptides from the library. The selection represents infectivity enhancing and not […]
concentration. Error bars indicate standard deviation from triplicate measurements. Source data for Figure S2 […]
Figure S3 Cell Viability normalized to 100% metabolic activity determined by CellTiterGlo Assay of 20 peptides reported in literature. 33,34,43–48,35–42 Cell viability (> 80%) is maintained for all peptides at 1.3 µM concentration regardless of the preparation method, which is A PNF formation method by dilution of 10 mg/mL peptide stock in DMSO in PBS to 1 mg/mL or B preparation according to literature reported protocol (SI Section 8). Error bars indicate standard deviation from triplicate measurements. Source data for Figure S3 is provided.

[2] = Zeta-potential measurement; assay type: physicochemical
How it was run: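 Peptides from a 10 mg/mL DMSO stock were brought to 1 mg/mL in PBS (pH 7.4) and aged 1 d at RT. Just before reading, they were diluted into 1 mM aqueous KCl, and zeta potential was calculated from electrophoretic mobility with the Smoluchowski formula.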

[3] = Turbidity, derived count rate of scattered light; assay type: physicochemical; details: derived count rate of scattered light at 633 nm, 173°, from zeta-potential measurement, 0.1 mg/mL in 1 mM KCl after 1 d at 1 mg/mL in PBS; turbidity / microscopic aggregation; mean of triplicate
Description: 4 µL of 1 mg/mL peptide fibrils solution is added to a 20 µL, 50 µM ThT–solution in PBS. The mixture is incubated for 15 min at RT to allow binding of ThT dye with β–sheet rich structures. For reference PBS (4 µL) was added instead of peptide fibril solution. The samples were placed in black UV Star® 384 microliter well–plates (Greiner bio–one). Fluorescence spectra were recorded on an Infinite® M1000 PRO microplate reader (Tecan) at λem = 488 nm upon excitation at λex = 440 nm with 10 nm bandwidths and multiple reads per well (3×3). Measurements were repeated in triplicates and averaged with standard deviation. […] Zeta-Potential. For the determination of the surface charge of aggregated peptides zeta-potential measurements were conducted with a Zetasizer Nano ZS, Malvern Instruments. Unless stated otherwise the peptides were dissolved from DMSO (10 mg/mL) in PBS (pH 7.4) to concentration of 1 mg/mL and incubated for 1d at RT. Just before the measurement the 60 µL of the peptides were further diluted in 600 µL KCl (aq, 1 mM) in a 1 mL disposable folded capillary cells (DTS–1060, Zetasizer Nano series, Malvern). The zeta potential of the peptides was derived from the electrophoretic mobility based on the Smoluchowski formula. All measurements were averaged over two individually performed experiments and conducted in triplicates for each sample. Aggregate analysis. […] Furthermore, fluorescence microscopy was conducted by staining 1 µL preformed fibrils (1 mg/mL) with 9 µL ThT (50 µM). Brightfield microscopy was performed simultaneously to evaluate aggregation also for non ThT-active fibrils. The measurements were performed on a Leica DMi8 microscope with 10x air objective and equipped with a Leica MC170 HD camera with a filter setting λem = 527/30 nm upon excitation at λex = 480/40 nm) and processed with the Leica LASX software. To quantify size and number of microscopic aggregation of particles > 10 µm^2 at least 3 independently measured images were analyzed via the 3D object counter analysis tool of ImageJ, v 1.53f51. Sum–frequency generation. The SFG experiments were carried out with a femtosecond Ti: Sapphire amplified laser system (Spitfire Ace, Spectra–Physics, 800 nm, 40 fs, 1 kHz) with 5 W output power. We used 2 W to pump an optical parametric amplifier (TOPAS, light conversion) with a non–collinear difference frequency generation stage to generate broadband IR pulses. Another 1 W of the laser output passed through an etalon to generate narrowband visible pulses (10 cm^-1). The incident angles of the visible and IR beams were 36° and 41° with respect to the surface normal, respectively. The visible (13 µJ) and IR (5 µJ) pulses were overlapped spatially and temporally at the sample position. Subsequently, the generated SFG pulse was guided into a spectrograph (Acton SP 300i, Princeton Instruments), and detected with an EMCCD (Newton, Andor Technology). To avoid IR absorption of water vapor, we purged N2 for the measurement. All spectra were collected in the ssp (denoting s-, s- and p-polarized SFG, visible and IR, respectively) polarization combination. The spectra were normalized to the non–resonant signal taken from z–cut quartz after subtracting a background spectrum. […]
ways to determine turbidity of samples, this can be via transmittance and via scattering. Transmittance […]
as it is an easy and fast method.10,11 However, transmittance contributes not only from µm-sized aggregates but also nm-sized aggregates such as distinct fibrils, which makes hard to distinguish between fibril formation and micrometer sized aggregation. Although dynamic light scattering is a frequently applied method for determination of particle size, it cannot be conducted in solutions with anisotropic aggregates in micrometer size range, since the Stokes-Einstein relation is only applicable for homogeneous […] spherical particles.12 Further models describing scattering intensity and […]

[4] = assay type: physicochemical; design: key to Fibril / Fibril Formation / TEM 2cat / Fibril: 1 = fibrils present; 0 non-fibrillar structures; details: TEM, 1 mg/mL, uranyl acetate stain, qualitative
Description: For ATR FT–IR spectroscopy measurements, 200 µL of the respective 1 mg/mL PNF solution was lyophilized and the resulting powder used for measurement. All spectra were recorded on a Bruker Tensor 27 spectrometer with a diamond crystal as ATR element (PIKE MiracleTM, spectral resolution 2 cm^-1). Every sample was measured with 64 scans. Data were analyzed with OriginLab software and calculation of β–sheet content was conducted according to a previous report. TEM. For TEM measurements 5 µL of PNF fibrils (1 mg/mL) were placed on copper grids coated with carbon and formvar layer (300 mesh, Plano GmbH). After 10 min incubation time, the grids were staining with 4% uranyl acetate solution for 2.5 min and washed with water. Measurements were performed on a Jeol 1400 electron microscope with 120 kV acceleration voltage. CR Assay. For the determination of the amount of peptide monomer converting into nanostructures the amine reactive dye fluorescamine was used analogous to a previous reported protocol. Briefly, 100 µL of the preformed PNF solution was centrifuged in a Vivaspin 500 tube (3 kDa MWCO) to separate fibers from free peptide monomer (16200 x g, 4 °C, 45 min). The filtrate and 100 μL of the non-filtered PNF sample were lyophilized and dissolved in 30 μL DMSO. 10 μL of the filtrate and non-filtered DMSO samples were submitted in a black UV Star® 384 microliter well–plates (Greiner bio–one) and 3 μL of the fluorescamine solution (10 mg/mL, DMSO) was added to measure the fluorescence enhancement. After 20 min of incubation at RT, fluorescence was recorded on an Infinite® M1000 PRO microplate reader (Tecan) at λem = 470 nm upon excitation at λex = 365 nm with 10 nm bandwidths and multiple reads per well (3×3). Measurements were repeated in triplicates and averaged with standard deviation. All values were calculated as n-fold fluorescence enhancement (DMSO only as a reference was set to 1). The conversion rate CR was defined according to the equation Eq. (3).3 CR=100−100×fluorescenceintensityfiltrate/fluorescenceintensityoriginal[%]
1. Remarks on experimental parameters and bioinformatic descriptors
1.1 Experimental parameters
Transmission electron microscopy (TEM) measurements. TEM measurements were used to control if peptides assemble. The assemblies were categorized in non -fibrillar structures (no assembly, […]
grid but only amorphous aggregates. In contrast, peptides defined as fibrillar may also include amorphous structures. Amongst nonfibrillar assemblies also amorphous aggregates are summarized.
Amorphous aggregates are defined as structures with high β-sheet content which lack long-range order, that is crystallinity or fibril formation. It is generally assumed that these structures might be

[5] = Turbidity, derived count rate of scattered light; assay type: physicochemical; details: log10 of derived count rate of scattered light, Figure 7B

Row | Substance | infectivity ([1]; infectivity class (low / medium / high) of the peptide in the sequence-pattern analysis, Fig. S22-A4, class limits not given) | Log10 Inf. rel. to EF-C ([1]; log10 of HIV-1 infection of TZM-bl cells relative to EF-C, Fig S15 source data, asymmetric std dev errors) | viability 0.26 µM (TZM-bl cells) | viability 1.3 µM (TZM-bl cells) | viability 6.5 µM (TZM-bl cells) | Zeta-pot. / mV ([2]; zeta potential of peptide, Fig S15 source data) | Log10 Infection Rel EF-C ([1]; log10 of infection relative to EF-C, Figure 7B) | Inf. rel. EF-C ([1]; n-fold infection vs virus only, relative to that of EF-C, 1.3 µM peptide) | Abs Infection at 0.26µM ([1]; peptide 0.26 µM, mean of n = 3, Figure 7A) | Abs Infection at 1.3 µM ([1]; peptide 1.3 µM, mean of n = 3, Figure 7A) | Abs Infection at 6.5 µM ([1]; peptide 6.5 µM, mean of n = 3, Figure 7A) | Count Rate / kcps [3] | Zeta pot. / mV ([2]; 1 mg/mL in PBS pH 7.4 from 10 mg/mL DMSO stock, 1 d RT, 60 µL diluted in 600 µL 1 mM KCl, Zetasizer Nano ZS, Smoluchowski, mean of triplicate) | Zeta-Potential / mV ([2]; mean, Figure 7B) | Fibril / Fibril Formation [4] | Log10 Count Rate [5]
1 | CKIW [TM81] | low | -1.286 | 106.2 | 107.1 | 100.6 | -3.71 mV |  |  |  |  |  |  |  |  |  | 
2 | ISKLEYSNFSVRY [reference compound] |  |  |  |  |  |  | -0.26 | 0.54 | 23820 | 58613.33333 | 157450 | 7807 kcps | 9.3 mV | 9.33 mV | 1 | 3.893
3 | QCKIKQIINMWQ [EF-C (Münch Stock)] |  |  | 102 | 94.89 | 78.3 |  |  |  |  |  |  |  |  |  |  | 
